Data reported in US20230365546A1, “5-SUBSTITUTED INDOLE 3-AMIDE DERIVATIVES, PREPARATION METHOD AND USE THEREOF” (ORIGIANT PHARMACEUTICAL CO., LTD, priority 2020, published 2023).
Several values for one entry are separate records, joined by “and”; a condition that tells them apart may be missing. Identical values can stand only once.

What was measured:
Test in all cases: Kinase Profiler 10 μM panel
[1] = target: FGFR1(V561M)(h) (Homo sapiens (Human), UniProt P11362, V561M)
Description: (§1) In vitro kinase assays were conducted using Kinase Profiler services provided by Eurofins. The experimental method was as follows: the small molecule compound to be tested (0.001-10 μM), the protein kinase to be tested were incubated with a buffer containing substrate, 10 mM magnesium acetate, and [γ-^33P-ATP], the reaction was started by adding Mg\TPmix, after incubation for a period of time at room temperature, a 3% phosphate solution was added to the buffer to stop the reaction. Subsequently, 10 μL of the reaction mixture was quantitatively pipetted onto P30 filter paper, which was washed three times with 75 mM phosphate solution and then once with methanol. The P30 filter paper was air-dried and scintillation fluid was added for scintillation counting.

[2] = target: Fms(h) (Homo sapiens (Human), UniProt P07333)
Description: as §1

[3] = target: GRK1(h) (Homo sapiens (Human), UniProt Q15835)
Description: as §1

[4] = target: AMPKα2(h) (Homo sapiens (Human), UniProt P54646)
Description: as §1

[5] = target: Pim-1(h) (Homo sapiens (Human), UniProt P11309)
Description: as §1

[6] = target: Hck(h) activated (Homo sapiens (Human), UniProt P08631)
Description: as §1

[7] = target: BRK(h) (Homo sapiens (Human), UniProt Q13882)
Description: as §1

[8] = target: BrSK2(h) (Homo sapiens (Human), UniProt Q8IWQ3)
Description: as §1

[9] = target: JAK1(h) (Homo sapiens (Human), UniProt P23458)
Description: as §1

[10] = target: Lck(h) (Homo sapiens (Human), UniProt P06239)
Description: as §1

[11] = target: CaMKK2(h) (Homo sapiens (Human), UniProt Q96RR4)
Description: as §1

[12] = target: Ret (V804L)(h) (Homo sapiens (Human), UniProt P07949, V804L)
Description: as §1

[13] = target: CDK2/cyclinA(h) (Homo sapiens (Human), UniProt P24941)
Description: as §1

[14] = target: CDK3/cyclinE(h) (Homo sapiens (Human), UniProt Q00526)
Description: as §1

[15] = target: Rsk1(h) (Homo sapiens (Human), UniProt Q15418)
Description: as §1

[16] = target: Rsk1(r) (Rattus norvegicus (Rat), UniProt Q63531)
Description: as §1

[17] = target: CDKL3(h) (Homo sapiens (Human), UniProt Q8IVW4)
Description: as §1

[18] = target: Met(Y1248D)(h) (Homo sapiens (Human), UniProt P08581, Y1230D)
Description: as §1

[19] = target: CK2(h) (Homo sapiens (Human), UniProt P68400)
Description: as §1

[20] = target: Src(T341M)(h) (Homo sapiens (Human), UniProt P12931, T341M)
Description: as §1

[21] = target: Tec(h) activated (Homo sapiens (Human), UniProt P42680)
Description: as §1

[22] = target: mTOR/FKBP12(h) (Homo sapiens (Human), UniProt P42345)
Description: as §1

[23] = target: Tie2 (h) (Homo sapiens (Human), UniProt Q02763)
Description: as §1

[24] = target: DYRK1B(h) (Homo sapiens (Human), UniProt Q9Y463)
Description: as §1

[25] = target: EphA3(h) (Homo sapiens (Human), UniProt P29320)
Description: as §1

[26] = target: EphA5(h) (Homo sapiens (Human), UniProt P54756)
Description: as §1

[27] = target: PAR-1Bα(h) (Homo sapiens (Human), UniProt Q7KZI7)
Description: as §1

[28] = target: Wee1(h) (Homo sapiens (Human), UniProt P30291)
Description: as §1

[29] = target: PDGFRα(V561D)(h) (Homo sapiens (Human), UniProt P16234, V561D)
Description: as §1

[30] = target: PDHK4(h) (Homo sapiens (Human), UniProt Q16654)
Description: as §1

[31] = target: FGFR2(h) (Homo sapiens (Human), UniProt P21802)
Description: as §1

[32] = target: ZAK(h) (Homo sapiens (Human), UniProt Q9NYL2)
Description: as §1

[33] = target: FGFR3(h) (Homo sapiens (Human), UniProt P22607)
Description: as §1

Sequence of FGFR1(V561M)(h) (P11362 22-822 V561M): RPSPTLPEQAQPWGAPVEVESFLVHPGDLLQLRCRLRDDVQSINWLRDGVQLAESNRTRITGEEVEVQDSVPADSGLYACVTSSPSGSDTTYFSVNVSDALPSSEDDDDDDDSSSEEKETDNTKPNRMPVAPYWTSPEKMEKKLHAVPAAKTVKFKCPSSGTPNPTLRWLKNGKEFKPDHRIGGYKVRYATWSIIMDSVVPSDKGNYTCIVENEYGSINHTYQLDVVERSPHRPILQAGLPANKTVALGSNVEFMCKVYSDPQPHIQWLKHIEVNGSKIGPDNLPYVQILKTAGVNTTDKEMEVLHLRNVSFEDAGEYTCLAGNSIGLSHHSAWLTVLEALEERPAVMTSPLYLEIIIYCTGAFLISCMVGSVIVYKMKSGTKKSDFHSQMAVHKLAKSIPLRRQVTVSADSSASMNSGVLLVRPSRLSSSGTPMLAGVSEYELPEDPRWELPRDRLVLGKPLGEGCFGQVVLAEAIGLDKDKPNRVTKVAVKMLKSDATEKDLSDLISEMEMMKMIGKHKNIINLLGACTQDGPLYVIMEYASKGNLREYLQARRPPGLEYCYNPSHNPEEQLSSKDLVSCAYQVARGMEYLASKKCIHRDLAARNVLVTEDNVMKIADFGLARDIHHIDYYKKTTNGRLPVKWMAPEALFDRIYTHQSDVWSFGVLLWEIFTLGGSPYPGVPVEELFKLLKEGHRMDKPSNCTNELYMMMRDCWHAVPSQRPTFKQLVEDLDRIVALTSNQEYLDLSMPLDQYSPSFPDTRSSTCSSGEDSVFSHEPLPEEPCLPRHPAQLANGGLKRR
Sequence of JAK1(h) (P23458 whole entry): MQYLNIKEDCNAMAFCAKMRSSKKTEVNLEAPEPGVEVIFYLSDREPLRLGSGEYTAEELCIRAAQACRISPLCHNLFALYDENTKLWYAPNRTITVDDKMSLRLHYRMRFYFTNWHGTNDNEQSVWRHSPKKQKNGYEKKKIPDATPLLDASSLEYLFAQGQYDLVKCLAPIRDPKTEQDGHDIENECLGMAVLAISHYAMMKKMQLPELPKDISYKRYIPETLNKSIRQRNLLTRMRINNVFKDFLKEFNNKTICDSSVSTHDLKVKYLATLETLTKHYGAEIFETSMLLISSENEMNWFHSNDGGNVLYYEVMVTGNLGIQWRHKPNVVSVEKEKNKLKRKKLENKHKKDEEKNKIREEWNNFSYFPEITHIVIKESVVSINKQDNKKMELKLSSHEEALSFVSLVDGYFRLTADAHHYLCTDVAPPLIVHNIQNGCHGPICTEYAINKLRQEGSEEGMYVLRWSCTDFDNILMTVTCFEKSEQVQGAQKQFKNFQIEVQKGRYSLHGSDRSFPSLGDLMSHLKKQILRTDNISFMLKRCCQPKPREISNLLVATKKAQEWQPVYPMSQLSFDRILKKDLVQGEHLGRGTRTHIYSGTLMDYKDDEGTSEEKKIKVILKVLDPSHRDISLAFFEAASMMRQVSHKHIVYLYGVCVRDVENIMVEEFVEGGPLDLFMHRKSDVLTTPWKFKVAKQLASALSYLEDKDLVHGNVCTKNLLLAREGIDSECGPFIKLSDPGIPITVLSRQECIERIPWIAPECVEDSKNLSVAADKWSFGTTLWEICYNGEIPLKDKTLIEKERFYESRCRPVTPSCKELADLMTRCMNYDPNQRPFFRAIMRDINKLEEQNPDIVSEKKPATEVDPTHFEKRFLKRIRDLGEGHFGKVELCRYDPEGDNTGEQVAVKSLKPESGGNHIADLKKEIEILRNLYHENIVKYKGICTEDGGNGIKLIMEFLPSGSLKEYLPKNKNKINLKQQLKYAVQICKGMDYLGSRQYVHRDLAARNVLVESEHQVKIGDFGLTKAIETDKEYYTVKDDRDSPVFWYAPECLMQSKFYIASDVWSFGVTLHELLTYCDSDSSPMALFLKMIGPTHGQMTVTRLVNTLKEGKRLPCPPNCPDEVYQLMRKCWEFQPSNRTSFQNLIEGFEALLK
Sequence of Rsk1(r) (Q63531 whole entry): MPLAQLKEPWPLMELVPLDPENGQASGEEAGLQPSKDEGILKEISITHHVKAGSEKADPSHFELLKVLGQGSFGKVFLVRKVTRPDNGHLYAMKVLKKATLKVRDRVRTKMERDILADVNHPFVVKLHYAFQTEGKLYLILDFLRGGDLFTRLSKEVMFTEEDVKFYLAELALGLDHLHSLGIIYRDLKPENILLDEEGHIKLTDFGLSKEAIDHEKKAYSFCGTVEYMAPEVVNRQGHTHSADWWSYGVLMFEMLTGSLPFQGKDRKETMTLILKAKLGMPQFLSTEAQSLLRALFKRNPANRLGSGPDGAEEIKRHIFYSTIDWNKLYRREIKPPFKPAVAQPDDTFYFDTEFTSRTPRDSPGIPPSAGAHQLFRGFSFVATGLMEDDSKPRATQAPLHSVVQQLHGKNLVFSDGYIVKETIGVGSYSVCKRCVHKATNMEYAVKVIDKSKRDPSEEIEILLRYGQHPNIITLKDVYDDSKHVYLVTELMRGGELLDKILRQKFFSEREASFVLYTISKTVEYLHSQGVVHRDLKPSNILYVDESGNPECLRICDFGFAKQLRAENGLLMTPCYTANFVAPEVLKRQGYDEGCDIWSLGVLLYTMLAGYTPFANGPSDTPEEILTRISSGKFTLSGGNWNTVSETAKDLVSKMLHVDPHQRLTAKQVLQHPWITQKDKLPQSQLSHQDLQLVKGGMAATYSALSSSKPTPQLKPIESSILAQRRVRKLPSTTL
Sequence of BrSK2(h) (Q8IWQ3 whole entry): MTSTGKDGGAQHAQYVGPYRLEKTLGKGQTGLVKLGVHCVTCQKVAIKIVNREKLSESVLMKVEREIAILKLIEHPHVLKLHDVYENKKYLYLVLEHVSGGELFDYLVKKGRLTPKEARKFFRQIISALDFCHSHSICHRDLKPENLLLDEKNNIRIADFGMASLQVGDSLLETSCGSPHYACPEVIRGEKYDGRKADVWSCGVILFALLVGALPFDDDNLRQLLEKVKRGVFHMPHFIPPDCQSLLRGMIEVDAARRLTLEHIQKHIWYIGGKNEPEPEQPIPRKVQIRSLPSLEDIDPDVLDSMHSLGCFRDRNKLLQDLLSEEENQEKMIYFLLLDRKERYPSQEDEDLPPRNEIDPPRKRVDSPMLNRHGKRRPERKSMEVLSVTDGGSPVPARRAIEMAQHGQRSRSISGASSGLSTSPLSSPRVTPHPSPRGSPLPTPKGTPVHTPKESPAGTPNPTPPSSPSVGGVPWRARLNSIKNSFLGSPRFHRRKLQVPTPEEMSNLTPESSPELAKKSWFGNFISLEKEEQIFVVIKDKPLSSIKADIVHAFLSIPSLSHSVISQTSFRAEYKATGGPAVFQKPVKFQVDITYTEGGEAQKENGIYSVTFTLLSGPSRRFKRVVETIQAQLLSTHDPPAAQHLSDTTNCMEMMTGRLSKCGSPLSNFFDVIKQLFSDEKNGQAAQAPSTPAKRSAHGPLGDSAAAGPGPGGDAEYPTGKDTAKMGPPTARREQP
Sequence of BRK(h) (Q13882 whole entry): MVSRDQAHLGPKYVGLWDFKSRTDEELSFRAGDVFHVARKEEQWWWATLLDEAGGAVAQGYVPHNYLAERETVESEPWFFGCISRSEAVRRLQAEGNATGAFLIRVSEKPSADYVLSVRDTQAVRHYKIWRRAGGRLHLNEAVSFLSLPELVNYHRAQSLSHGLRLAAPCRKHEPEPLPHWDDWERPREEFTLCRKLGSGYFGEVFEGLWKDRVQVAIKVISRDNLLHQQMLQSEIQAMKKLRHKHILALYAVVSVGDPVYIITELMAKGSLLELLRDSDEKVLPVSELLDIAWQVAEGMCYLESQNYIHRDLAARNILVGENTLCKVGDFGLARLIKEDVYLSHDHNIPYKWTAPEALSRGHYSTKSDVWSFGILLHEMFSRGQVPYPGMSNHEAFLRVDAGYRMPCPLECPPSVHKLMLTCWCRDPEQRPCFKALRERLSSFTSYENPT
Sequence of PAR-1Bα(h) (Q7KZI7 other isoform, or with tags, fused parts or gaps): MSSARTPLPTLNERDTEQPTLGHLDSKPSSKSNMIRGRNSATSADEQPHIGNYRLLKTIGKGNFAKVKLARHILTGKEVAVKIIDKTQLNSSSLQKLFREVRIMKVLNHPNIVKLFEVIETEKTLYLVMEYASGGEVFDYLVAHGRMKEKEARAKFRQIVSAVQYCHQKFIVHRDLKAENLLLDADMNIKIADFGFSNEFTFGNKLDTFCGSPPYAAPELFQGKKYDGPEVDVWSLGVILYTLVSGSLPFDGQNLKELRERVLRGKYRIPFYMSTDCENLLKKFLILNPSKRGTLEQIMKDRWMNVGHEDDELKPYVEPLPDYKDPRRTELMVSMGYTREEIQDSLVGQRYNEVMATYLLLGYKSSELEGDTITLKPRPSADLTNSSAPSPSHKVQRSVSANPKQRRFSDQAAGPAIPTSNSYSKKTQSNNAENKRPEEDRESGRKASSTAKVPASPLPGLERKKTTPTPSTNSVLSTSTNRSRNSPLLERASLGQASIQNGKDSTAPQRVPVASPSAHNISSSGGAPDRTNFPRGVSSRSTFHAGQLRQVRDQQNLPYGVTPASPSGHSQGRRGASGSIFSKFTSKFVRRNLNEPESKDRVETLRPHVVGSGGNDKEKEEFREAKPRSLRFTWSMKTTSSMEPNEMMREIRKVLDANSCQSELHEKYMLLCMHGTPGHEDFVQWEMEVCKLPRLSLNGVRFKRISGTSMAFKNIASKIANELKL
Sequence of PDHK4(h) (Q16654 whole entry): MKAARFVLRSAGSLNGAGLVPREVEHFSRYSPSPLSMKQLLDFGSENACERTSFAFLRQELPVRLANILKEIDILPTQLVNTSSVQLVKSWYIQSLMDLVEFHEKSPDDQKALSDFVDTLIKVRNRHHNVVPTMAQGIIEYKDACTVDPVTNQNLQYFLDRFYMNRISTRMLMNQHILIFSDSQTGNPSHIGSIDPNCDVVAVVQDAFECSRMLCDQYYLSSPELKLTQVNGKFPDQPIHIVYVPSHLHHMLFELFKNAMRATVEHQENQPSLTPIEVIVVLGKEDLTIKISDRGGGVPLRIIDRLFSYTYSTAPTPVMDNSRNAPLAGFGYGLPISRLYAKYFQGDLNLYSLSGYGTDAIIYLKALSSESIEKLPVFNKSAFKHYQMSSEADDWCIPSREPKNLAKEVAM

C[C@H](NC(=O)c1c[nH]c2ccc(-c3ccc4nc(NC(=O)C5CC5)sc4c3)cc12)c1cccc(F)c1 [Compound 34, (S)-5-(2-(cyclopropanecarboxamido)benzo[d]thiazol-6-yl)-N-(1-(3-fluorophenyl)ethyl)-1H-indole-3-carboxamide]
Inhibition ratio [1]: 80%
Inhibition ratio [2]: 21%
Inhibition ratio [3]: −24%
Inhibition ratio [4]: 13%
Inhibition ratio [5]: 3%
Inhibition ratio [6]: 26%
Inhibition ratio [7]: 4%
Inhibition ratio [8]: 8%
Inhibition ratio [9]: 26%
Inhibition ratio [10]: 65%
Inhibition ratio [11]: 34%
Inhibition ratio [12]: 99%
Inhibition ratio [13]: 11%
Inhibition ratio [14]: −13%
Inhibition ratio [15]: 37%
Inhibition ratio [16]: 45%
Inhibition ratio [17]: 51%
Inhibition ratio [18]: 99%
Inhibition ratio [19]: −9%
Inhibition ratio [20]: 36%
Inhibition ratio [21]: 17%
Inhibition ratio [22]: 10%
Inhibition ratio [23]: 96%
Inhibition ratio [24]: 12%
Inhibition ratio [25]: −8%
Inhibition ratio [26]: 40%
Inhibition ratio [27]: 2%
Inhibition ratio [28]: −1%
Inhibition ratio ([29]; PDGFRα(V561D)(h)): 99%
Inhibition ratio [30]: 72%
Inhibition ratio [31]: 63%
Inhibition ratio [32]: 67%
Inhibition ratio [33]: 35%

C[C@H](NC(=O)c1cn(C)c2ccc(-c3ccn4nc(NC(=O)C5CC5)nc4c3)cc12)c1cccc(F)c1 [Compound 94, (S)-5-(2-(cyclopropanecarboxamido)-[1,2,4]triazolo[1,5-a]pyridin-7-yl)-N-(1-(3-fluorophenyl)ethyl)-1-methyl-1H-indole-3-carboxamide]
Inhibition ratio/% [1]: 45% and 30%
Inhibition ratio/% [2]: 22%
Inhibition ratio/% [3]: 52%
Inhibition ratio/% [4]: 16%
Inhibition ratio/% [5]: 9%
Inhibition ratio/% [6]: −12%
Inhibition ratio/% [7]: 47%
Inhibition ratio/% [8]: −2%
Inhibition ratio/% [9]: 52%
Inhibition ratio/% [10]: 44%
Inhibition ratio/% [11]: 63%
Inhibition ratio/% [12]: 50%
Inhibition ratio/% [13]: 24%
Inhibition ratio/% [14]: 65%
Inhibition ratio/% [15]: 41%
Inhibition ratio/% [16]: 20%
Inhibition ratio/% [17]: −5%
Inhibition ratio/% [18]: 13%
Inhibition ratio/% [19]: 44%
Inhibition ratio/% [20]: −6%
Inhibition ratio/% [21]: −20%
Inhibition ratio/% [22]: 36%
Inhibition ratio/% [23]: 30%
Inhibition ratio/% [24]: −1%
Inhibition ratio/% [25]: 6%
Inhibition ratio/% [26]: 4%
Inhibition ratio/% [27]: 33%
Inhibition ratio/% [28]: 1%
Inhibition ratio/% ([29]; printed in Table 4 as PDGFRβ (V561D)(h)): 38%
Inhibition ratio/% [30]: −18%
Inhibition ratio/% [31]: −13%
Inhibition ratio/% [32]: 59%
Inhibition ratio/% [33]: 40%
